In patent publication US11491091B2, “Cooling product” (SYMRISE AG, priority 2010, dated 2022):

System: skin of test persons
Experiment: Cooling effect on the skin as perceived by test persons (panel test)
Assay type: in vivo
Conditions: in each formulation the proportion of 1,2-pentanediol replaced with 1,2-hexanediol at a ratio of 5:3
From the text: In case of doubt, the perceptibility of the cooling effect is to be determined by means of a panel test wherein the corresponding mixture is applied onto the skin of at least 10 test persons. If in the course of this, preferably in combination with a blind test, 90% of the test persons confirm a cooling effect, then this will preferably correspond to the criteria for the presence of a corresponding effect. Topical applications in terms of the present text are applications where the corresponding active substance or the combination of active substances is brought into contact with the skin or with a mucous membrane. It is especially preferred that the evaluation of a cooling effect and its enhancement is made analog to the application example presented below. […] Provided the corresponding formulations also contained trans-4-tert. butylcyclohexanol, the cooling effect was even further enhanced compared to formulations without this compound.

SMILES: CCCCC(O)CO (stereo not shown) [1,2-hexanediol]
- cooling effect enhancement after replacement of 1,2-pentanediol: comparable effects are achieved
